In the assay the test system is Sco-induced amnesia rats. As to the kind of experiment: Novel object recognition, Sco-induced memory impairment. It is filed as in vivo, Sprague-Dawley rats. Particulars: Sco 1.5 mg/kg/d; BMX or SAHA 5 mg/kg/d i.p.; 8 h. The procedure: SAHA was supplied by NatureWise Biotech and Medicals Corporation (Taipei, Taiwan). […] (St. Louis, MO, USA). The BMX and SAHA stock (100 mg/mL) was dissolved in DMSO and diluted with saline to a final concentration of 0.5 mg/mL (in 0.5% DMSO/saline). […] SD rats were randomly divided into 3 groups. For the naïve animal experiments, the BMX-injected or SAHA-injected groups were injected with BMX (5 mg/kg/d) or SAHA (5 mg/kg/d) intraperitoneally 7 d prior to behavioral experiments and during the experimentation. The control group received the 0.5% DMSO/saline injection. The injection volume was 10 μL/g of body weight. The injections were performed once per day. For the amnesia experiment, the protocol was adopted from previous studies with modifications. […] The control group received the 0.5% DMSO/saline injection. The injection volume was 10 μL/g of body weight. […] The method used was adopted from that of a previous study with modifications. During familiarization, rats were allowed to explore 2 identical objects in an open field box (90 × 70 × 60 cm) for 5 min. The criteria used for exploration were a distance less than 1.5 cm between the rat and the object or direct contact with the object. […] The time that each rat spent exploring the 2 objects during a 5 min period was recorded. […]

With `O=C(CCCCCCC(=O)Nc1ccccc1)NO` [SAHA, suberoylanilide hydroxamic acid, reference compound], the “exploratory preference for the novel object (NO)” value is given as “showed no exploratory preference for the NO”.

(Values after publication PMC3625590, “NBM-T-L-BMX-OS01, Semisynthesized from Osthole, Is a Novel Inhibitor of Histone Deacetylase and Enhances Learning and Memory in Rats” (Evidence-based Complementary and Alternative Medicine : eCAM, 2013).)
